A word on the solubility (kinetic): it is solubility judged after dilution from a stock solution rather than from solid.

≈ marks a conversion by molar mass, not a printed value.

The results in this text go back to PubChem BioAssay AID1996.

The conditions of the series: buffer; pH 7.4; 200.0 µM.
In turn, `CCOc1ccc(NC(=O)CN(C)C(=O)C2CCCC2)cc1OCC` returned a kinetic solubility of 37.6 µg/mL (≈ 108 µM).
The molecule `CCC1CN(C(=O)NCc2ccc(C)cc2)c2cc(Cl)ccc2O1` (configuration not stated) came in with a kinetic solubility of less than 0.4 µg/mL.
`CC(=O)Nc1ccc(Oc2ccc3c(c2)C(=O)NC3=O)cc1` showed a solubility (kinetic) of 16.9 µg/mL (≈ 57 µM).
Then `CCN(CC)P(=O)(c1ccccc1)c1c(C)nc2ccccn12` (configuration not stated), with greater than 49.1 µg/mL; and `Cc1ccc(C(O)CCc2ccc(N)cc2)cc1` (configuration not stated), with 31.9 µg/mL (≈ 132 µM).
With `COc1ccc(NC(=O)Nc2c(SC)nsc2SC)cc1`, the kinetic solubility was 1.8 µg/mL (≈ 5.27 µM).
The result for `CCCCCCN=C1CC(C)(C)CC(=O)/C1=C(/O)CCC` reads 19.5 µg/mL (≈ 66.5 µM).
Then `O=C(O)CSc1cccnc1Sc1ccc(Cl)cc1`, with greater than 46.8 µg/mL.
Then `Cc1onc(-c2ccccc2Cl)c1C(=O)N1CCCCC1`, with greater than 45.7 µg/mL.
`C=CCc1cc(/C=C2/NC(=O)N(CC(=O)OC)C2=O)cc(OC)c1O` gave a solubility (kinetic) of 11.9 µg/mL (≈ 34.4 µM).
The result for `C=CCNC(=O)COC(=O)c1ccc(Cl)c(S(N)(=O)=O)c1` reads greater than 49.9 µg/mL.
Consider `CCOC(=O)N1CCN(S(=O)(=O)c2ccc([N+](=O)[O-])cc2)CC1`, for which the solubility (kinetic) was determined as 36.9 µg/mL (≈ 107 µM).
Then `Cc1nc2sc(C(N)=O)c(N)c2c2c1CCCC2`, with 9.3 µg/mL (≈ 35.6 µM); and `N#Cc1ccc2nc3c(nc2c1)CCCC3`, with 30.2 µg/mL (≈ 144 µM).
In turn, `C=CCN1CCN(C(=O)c2c(-c3ccccc3)noc2C)CC1` had a solubility (kinetic) greater than 46.7 µg/mL.
Molecule `Cc1[nH]c2ccccc2c1C(=O)C(=O)N1CCN(C(=O)c2ccco2)CC1` showed a kinetic solubility greater than 54.8 µg/mL.
Then `CC(=O)N1CCN(c2ccc(NC(=O)c3ccccc3C)cc2)CC1`, with 36.8 µg/mL (≈ 109 µM); and `O=C(COC(=O)CNC(=O)c1ccccc1)Nc1ccc(Cl)cn1`, with 15.8 µg/mL (≈ 45.4 µM); and `O=C(NCc1c(Cl)cccc1Oc1ccccc1)c1ccccc1`, with 0.9 µg/mL (≈ 2.66 µM).
Then `COc1ccc(N(C(C)C(=O)N2CCCC2)S(C)(=O)=O)cc1` (configuration not stated), with greater than 49 µg/mL; and `O=C(CSc1ccccn1)Nc1nonc1[N+](=O)[O-]`, with greater than 42.2 µg/mL.
The result for `COc1ccc(-c2cc(C(=O)Nc3cccc(O)c3)no2)cc1` reads less than 0.3 µg/mL.
In the case of `Cc1ccccc1CN(C)C(=O)c1ccc2ccccc2n1`, the kinetic solubility was greater than 43.6 µg/mL.
In the case of `O=C(c1ccccc1)C1CCN(C(=O)c2ccco2)CC1`, the solubility (kinetic) came to 41.6 µg/mL (≈ 147 µM).
The result for `COc1ccc(NS(=O)(=O)c2cc(NC(=O)c3ccccc3)ccc2N2CCOCC2)cc1` reads 13.1 µg/mL (≈ 28 µM).
The result for `C/C(=N\S(=O)(=O)c1ccc(C)cc1)N(C)C` reads greater than 36 µg/mL; that for `O=S(=O)(NC(=S)Nc1ccccc1)c1ccc(F)cc1`, greater than 46.6 µg/mL; that for `COc1cc(SC)ccc1C(=O)OCC(=O)NCC(C)C`, greater than 46.7 µg/mL.
Then `S=C(NCc1ccccc1)NCc1cccc(Cl)c1`, with 23.2 µg/mL (≈ 79.8 µM).
In the case of `COc1ccc2oc(=N)c(C(=O)Nc3ccc(Cl)cc3)cc2c1`, the solubility (kinetic) is less than 0.4 µg/mL.
Turning to `CS(=O)(=O)N1CCc2nc(-c3ccccc3)sc2C1`, the kinetic solubility was 10.4 µg/mL (≈ 35.3 µM).
Then `O=C(CSc1nc2ccccc2c(=O)n1-c1ccccc1F)N1CCOCC1`, with 54.3 µg/mL (≈ 136 µM).
Then `Nc1nc(NCC(=O)O)nc(NC2CCCCC2)c1[N+](=O)[O-]`, with greater than 46.5 µg/mL; and `O=CN1c2ccccc2CSc2ccccc21`, with 32.9 µg/mL (≈ 136 µM).
`Cc1ccc(-c2cc3ccccc3nc2N)cc1` showed a solubility (kinetic) of 4 µg/mL (≈ 17.1 µM).
`CC(=O)C1C(c2ccccc2)c2c(noc2C)CC1(C)O` (configuration not stated): the solubility (kinetic) was greater than 42.8 µg/mL.
`COc1cc(OC)c(C2CC(=O)N3CN(C)CSC3=C2C#N)cc1OC` (configuration not stated) had a kinetic solubility of 43.3 µg/mL (≈ 115 µM).
Then `O=Cc1cn(CC(=O)Nc2ccc3c(c2)OCO3)c2ccccc12`, with 0.4 µg/mL (≈ 1.24 µM).
On to `CN(C)c1ccc(NC(=S)c2ccc3ccccc3n2)cc1`, for which the solubility (kinetic) is less than 0.2 µg/mL.
The result for `O=C(COC(=O)C1CCCCC1)Nc1cc([N+](=O)[O-])ccc1F` reads 36.4 µg/mL (≈ 112 µM); that for `Cc1cc2nccc(-c3ccncc3)n2n1`, greater than 31.5 µg/mL; that for `O=C(Nc1ccccc1)C1CCN(C(=O)c2ccco2)CC1`, greater than 44.8 µg/mL.
The result for `Cc1ccc(N2CCN(C(=O)NC3CCCCC3)CC2C)cc1` (configuration not stated) reads greater than 47.3 µg/mL; that for `COc1cccc(N2CC(O)Cn3c2nc2c3c(=O)[nH]c(=O)n2C)c1` (configuration not stated), greater than 51.5 µg/mL; that for `COc1ccccc1N1CCN(CC(O)c2ccccc2)CC1` (configuration not stated), 37.6 µg/mL (≈ 120 µM).
The result for `COc1cc2ncnc(NCc3ccc(F)cc3)c2cc1OC` reads greater than 47 µg/mL; that for `O=C(Cc1cccs1)Nc1nc(-c2cccnc2)cs1`, 5.3 µg/mL (≈ 17.6 µM).
The molecule `Oc1ccc(-c2cn3ccccc3n2)cc1O` showed a kinetic solubility of 24 µg/mL (≈ 106 µM).
Then `CC1CCN(C(=O)C2COc3ccccc3O2)CC1` (configuration not stated), with greater than 39.2 µg/mL; and `COc1cc(NC(C)CCc2ccccc2)cc(OC)c1OC` (configuration not stated), with greater than 47.3 µg/mL.
The result for `CC1CCCC(NC(=O)c2ccc3c(c2)OCO3)C1C` (configuration not stated) reads greater than 41.3 µg/mL.
The result for `COc1cc(OC)c(NC(=O)/C=C/C(=O)O)cc1Cl` reads greater than 42.9 µg/mL.
